Results: patent publication US20040028734A1, “Use of anti-muscarinic agents and calcium channel blockers in combination” (priority 2000, published 2004)
pEC50: −log10 of the molar value. Where two headings read alike, the source gives them in different places. Values belong to the molecule of their own block, whether it stands above or below them.

Assays:
[1] = system: T lymphocytes; conditions: cited from earlier work
[2] = Frey's syndrome, single dermal application; cited from earlier work
[3] = system: Guinea pig tracheal strip preparations; test: tissue or blood; conditions: for % Relaxation: % maximal of carbachol-induced tone, DRC to verapamil
Protocol: Again, guinea pig tracheal strip preparations were pre-contracted with 5×10^−6 M carbachol for 10 minutes before incubation with the pre-treatment drug. The relaxation (% maximal of carbachol-induced tone) induced by the pre-treatment is shown in FIG. 2, for the following groups.

[4] = system: Guinea pig tracheal strip preparations; test: tissue or blood; conditions: Cavia porcellus, 5 min
Protocol: Guinea pig tracheal strip preparations were pre-contracted with 5×10^−6 M carbachol for 10 minutes, to induce tone, before incubation with drug. […] Relaxation is expressed as % maximal relaxation induced by 5×10^−4 M papaverine after completion of concentration-response curves. […]

[5] = clinical level, compared with ipratropium; cited from earlier work

Structure (SMILES): CN1[C@@H]2CC[C@H]1C[C@@H](OC(=O)C(CO)c1ccccc1)C2 (some centres unmarked) [atropine, Atropine]
effect on acetylcholine-mediated enhanced T lymphocyte proliferation [1]: abolishes this effect completely

pEC50 [4]: 8.03
EC50 ([4]; read-out: -Log EC50 (converted)): 9.12 nM
Structure (SMILES): C[N+]1(C)CCC(OC(=O)C(O)(c2ccccc2)C2CCCC2)C1 (centres unmarked) [glycopyrrolate]
duration of action [2]: two day
% Relaxation ([3]; Group B, pre-treatment 4 × 10^−9 M): 6.5 ± 0.8%
% Relaxation ([3]; Group C, pre-treatment 4 × 10^−10 M): −0.7 ± 1.4%
duration of action in muscarinic antagonism [5]: longer duration of action in muscarinic antagonism than ipratropium

Structure (SMILES): COc1ccc(CCN(C)CCCC(C#N)(c2ccc(OC)c(OC)c2)C(C)C)cc1OC (centres unmarked) [verapamil]
pEC50 ([3]; Cavia porcellus): 5.30
